Reference: PubChem BioAssay AID2033 (NMMLSC, 2009)

Biological target: Ras-related protein Rab-2A (Canis lupus familiaris) (UniProt P61105)
Assay: fluorescent GTP competition at wildtype Rab2A – biochemical, multiplex dose response, Bodipy-FL-GTP, flow cytometry, SAR follow-up (AID 2033)
Details: GST-Rab2 beads, Bodipy-FL-GTP binding, Ki calculated from EC50

Chain of Ras-related protein Rab-2A (Canis lupus familiaris) (P61105 whole entry, looked up): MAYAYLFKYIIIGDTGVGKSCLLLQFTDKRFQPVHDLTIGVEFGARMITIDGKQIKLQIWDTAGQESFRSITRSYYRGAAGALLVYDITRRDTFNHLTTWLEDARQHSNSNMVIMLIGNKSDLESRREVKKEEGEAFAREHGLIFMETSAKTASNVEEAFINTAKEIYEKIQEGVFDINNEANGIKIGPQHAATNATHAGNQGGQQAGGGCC

Row | SMILES | Ki
1 | Cc1ccc(C)c(N2CCN(C(=O)CCc3nc(-c4ccc(Br)cc4)no3)CC2)c1 | 0.19 µM
2 | Cc1ccc(C)c(N2CCN(C(=O)CCc3nc(-c4ccccc4)no3)CC2)c1 | 0.05 µM
3 | COc1ccc(-c2noc(CCC(=O)N3CCN(c4cccc(Cl)c4)CC3)n2)cc1 | 0.54 µM
4 | COc1ccc(-c2noc(CCCC(=O)N3CCN(c4cc(C)ccc4C)CC3)n2)cc1 | 1.03 µM
5 | COc1cccc(-c2noc(CCC(=O)N3CCN(c4cc(C)ccc4C)CC3)n2)c1 | 0.25 µM
6 | COc1ccc(-c2noc(CCC(=O)N3CCN(c4ccccc4F)CC3)n2)cc1 | 0.05 µM
7 | Cc1ccc(-c2noc(CCC(=O)N3CCN(c4cc(C)ccc4C)CC3)n2)cc1 | 0.26 µM
8 | COc1ccc(-c2noc(CCC(=O)N3CCN(c4ccc(C)cc4)CC3)n2)cc1 | 0.05 µM
9 | COc1ccc(-c2ccc(CCC(=O)N3CCN(c4cc(C)ccc4C)CC3)o2)cc1 | 0.96 µM
10 | Cc1ccc(C)c(N2CCN(C(=O)CCc3nc(-c4ccccc4Br)no3)CC2)c1 | 0.2 µM
11 | COc1ccc(-c2ccc(CCC(=O)N3CCN(c4cc(C)ccc4C)CC3)[nH]2)cc1 | 0.33 µM
12 | Cc1ccc(C)c(N2CCN(C(=O)CCc3nc(-c4cccc(Cl)c4)no3)CC2)c1 | 0.18 µM
13 | Cc1cccc(-c2noc(CCC(=O)N3CCN(c4cc(C)ccc4C)CC3)n2)c1 | 0.08 µM
14 | Cc1ccc(C)c(N2CCN(C(=O)CCc3nc(-c4ccccc4C)no3)CC2)c1 | 0.11 µM
15 | COc1ccc(-c2noc(CCC(=O)N3CCN(c4ccccc4C(F)(F)F)CC3)n2)cc1 | 0.13 µM
16 | COc1ccc(-c2noc(CCC(=O)N3CCN(c4cc(C)ccc4C)CC3)n2)cc1 | 0.16 µM
17 | Cc1ccc(C)c(N2CCN(C(=O)CCc3nc(-c4ccc(Cl)cc4)no3)CC2)c1 | 0.11 µM
18 | COc1ccc(-c2ccc(CCC(=O)N3CCN(c4cc(C)ccc4C)CC3)s2)cc1 | 0.16 µM
19 | Cc1ccc(C)c(N2CCN(C(=O)CCc3nc(-c4cccc(Br)c4)no3)CC2)c1 | 0.23 µM
20 | COc1ccc(-c2noc(CCC(=O)N3CCN(c4cccc(C)c4C)CC3)n2)cc1 | 0.15 µM
21 | Cc1ccc(C)c(N2CCN(C(=O)CCc3nc(-c4ccc(F)cc4)no3)CC2)c1 | 0.02 µM
22 | COc1ccc(-c2noc(CCC(=O)N3CCC(c4cc(C)ccc4C)CC3)n2)cc1 | 0.16 µM
23 | COc1ccc(-c2noc(CCC(=O)N3CCN(c4cccc(OC)c4)CC3)n2)cc1 | 0.41 µM
24 | COc1ccc(-c2noc(CCC(=O)N3CCN(c4ccccc4Br)CC3)n2)cc1 | 0.21 µM
25 | COc1ccc(-c2noc(CCC(=O)N3CCN(c4ccccc4Cl)CC3)n2)cc1 | 0.15 µM
26 | Cc1ccc(C)c(N2CCN(C(=O)CCc3nc(-c4ccccc4F)no3)CC2)c1 | 0.06 µM
27 | COc1ccc(-c2noc(CCC(=O)N3CCN(c4ccccc4OC)CC3)n2)cc1 | 0.08 µM
28 | COc1ccc(-c2noc(CCC(=O)N3CCN(c4ccccc4C)CC3)n2)cc1 | 0.16 µM
29 | COc1ccc(-c2cc(CCC(=O)N3CCN(c4cc(C)ccc4C)CC3)on2)cc1 | 0.16 µM
